Patent US20250129135A1, “Multi-Agonist and Use Thereof” (priority 2021, published 2025)
Read-outs that look alike come from different tables or passages of the source. Starred links: 1 amine or outer side, 2 acyl side, 3 side chain; linkers in the order of their positions; H or OH if unused. Non-standard residues stand in square brackets, D forms with d. Residues, ends and D or L forms follow the SMILES beside them. Groups on a side chain read outwards from the residue. *: point of attachment. C20 diacid = O=C(O)CCCCCCCCCCCCCCCCCCC(=O)*; αMePhe(2-F) = C[C@](N)(Cc1ccccc1F)C(=O)O; γGlu = O=C(O)[C@H](CCC(=O)[*:2])N[*:1]; αMeF = C[C@](N)(Cc1ccccc1)C(=O)O; αMeL = CC(C)C[C@](C)(N)C(=O)O; AEEA = NCCOCCOCC(=O)O; Ac3c = NC1(C(=O)O)CC1; Aib = CC(C)(N)C(=O)O

Tests used:
[1] = tested on: human primary liver cells; assay type: cell-based; settings: for Rel. A (Relative Activity) on human primary liver cells: relative to GCG
Experimental: The cAMP levels produced by compounds on human primary liver cells were determined in this experiment. Human primary liver cells were purchased from Lonza (cell product number HUCPG).
Frozen human primary liver cells were placed in a 37° C. constant temperature water bath for rapid thawing and recovery. The cell solution was transferred to 10 ml of HBSS for resuspension, and centrifuged at 1000 rpm for 5 minutes at room temperature.
(§1) 10 μL cell suspension was added to each well in the 384 well plate. […] Using the ECHO liquid transfer system, 100 nL of the prepared compound solution was added to the corresponding cell suspensions in the 384 well plate, rotated and shaken at 1000 rpm for 1 minute to mix evenly, and then incubated at room temperature for 60 minutes. 10 μL of detection reagent was added to each well after drug incubation was completed, and incubation was performed for 60 minutes.

RIN-m5F cells = assay type: cell-based, rat; settings: for Rel. A (Relative Activity) on RIN-m5F: relative to GLP-1(7-37)
Experimental: This experiment measured the cAMP level produced by the compound on RIN-mF cells.
Frozen […] cells were placed in a 37° C. constant temperature water bath for rapid thawing and recovery. The cell solution was transferred to 10 ml of HBSS for resuspension, and centrifuged at 1000 rpm for 5 minutes at room temperature.
as §1, with “to each wells after drug” for “to each well after drug”

Human GCG R = target: T1, Human GCG R (Homo sapiens, UniProt P47871); assay: cAMP (HTRF) activity in HEK-293 cells stably overexpressing human GCG receptor; assay type: cell-based; settings: for Human GCG R Rel. A (Relative Activity): EC50 of human GCG / EC50 of compound
T1 construct: expressed in transfected cells; host or cells: HEK-293
T1 sequence (P47871 26-477): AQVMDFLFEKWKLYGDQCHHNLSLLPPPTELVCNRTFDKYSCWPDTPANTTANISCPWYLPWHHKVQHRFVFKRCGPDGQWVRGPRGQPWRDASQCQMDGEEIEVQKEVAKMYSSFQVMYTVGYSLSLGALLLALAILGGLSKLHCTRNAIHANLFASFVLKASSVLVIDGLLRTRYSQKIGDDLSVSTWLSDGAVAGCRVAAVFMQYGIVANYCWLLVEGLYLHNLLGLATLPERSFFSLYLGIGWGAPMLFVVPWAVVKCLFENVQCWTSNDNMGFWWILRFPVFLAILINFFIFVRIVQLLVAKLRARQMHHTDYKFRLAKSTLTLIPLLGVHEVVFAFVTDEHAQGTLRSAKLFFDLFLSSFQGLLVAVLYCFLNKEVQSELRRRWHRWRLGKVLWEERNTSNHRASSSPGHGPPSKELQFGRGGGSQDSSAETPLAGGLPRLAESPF
Experimental: (§2) By measuring the cAMP signal response levels of the aforementioned cells, the agonistic activity of individual compound towards the corresponding receptor was determined. The intracellular cAMP content was measured using reagent kit available from Cisbio Corp. based on HTRF (homogeneous time-resolved fluorescence) technology.
(§3) The cell fluid was transferred to 10 ml of HBSS for resuspension, and centrifuged at 1000 rpm for 5 minutes at room temperature.
(§4) 10 μL cell suspension was added to each well in the 384 well plate. […] Using the ECHO liquid transfer system, 100 nL of the prepared compound solution was added to the corresponding cell suspensions in the 384 well plate, rotated and shaken at 1000 rpm for 1 minute to mix evenly, and then incubated at room temperature for 60 minutes. 10 μL of detection reagent was added to each well after drug incubation was completed, and incubation was performed in the kit at room temperature for 60 minutes. […] GraphPad Prism 5 plotting software was used to create compound concentration response curves and EC50 (nM) values was calculated.

Human GIP R = target: T2, Human GIP R (Homo sapiens, UniProt P48546); assay: cAMP (HTRF) activity in CHO cells stably overexpressing GIP receptor; assay type: cell-based; settings: for Human GIP R Rel. A (Relative Activity): EC50 of human GIP / EC50 of compound; for EC50: stable transfected cell cAMP activity, at least 3 independent tests
T2 construct: expressed in transfected cells; host or cells: CHO
T2 sequence (P48546 22-466): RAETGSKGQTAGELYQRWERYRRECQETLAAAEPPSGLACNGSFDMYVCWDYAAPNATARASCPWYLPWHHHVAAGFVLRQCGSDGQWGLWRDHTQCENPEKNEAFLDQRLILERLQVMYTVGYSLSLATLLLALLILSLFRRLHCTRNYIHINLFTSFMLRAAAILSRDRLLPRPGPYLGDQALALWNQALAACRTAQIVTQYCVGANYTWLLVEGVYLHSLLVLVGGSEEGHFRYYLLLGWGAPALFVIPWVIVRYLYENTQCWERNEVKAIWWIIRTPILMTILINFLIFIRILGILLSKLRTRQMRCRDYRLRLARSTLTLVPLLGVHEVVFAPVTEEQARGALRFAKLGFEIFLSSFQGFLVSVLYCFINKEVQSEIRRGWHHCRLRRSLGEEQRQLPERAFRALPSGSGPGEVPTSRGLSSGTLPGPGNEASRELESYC
Experimental: as §2, §3, §4

Human GLP-1R = Human GLP-1R (Homo sapiens, UniProt P43220); assay: cAMP (HTRF) activity in HEK-293 cells stably overexpressing human GLP-1 receptor; assay type: cell-based; set-up: expressed in transfected cells; host or cells: HEK-293; settings: for Human GLP-1R Rel. A (Relative Activity): EC50 of human GLP-1 (7-37) / EC50 of compound; for EC50: stable transfected cell cAMP activity, at least 3 independent tests
Human GLP-1R, sequence (P43220 24-463): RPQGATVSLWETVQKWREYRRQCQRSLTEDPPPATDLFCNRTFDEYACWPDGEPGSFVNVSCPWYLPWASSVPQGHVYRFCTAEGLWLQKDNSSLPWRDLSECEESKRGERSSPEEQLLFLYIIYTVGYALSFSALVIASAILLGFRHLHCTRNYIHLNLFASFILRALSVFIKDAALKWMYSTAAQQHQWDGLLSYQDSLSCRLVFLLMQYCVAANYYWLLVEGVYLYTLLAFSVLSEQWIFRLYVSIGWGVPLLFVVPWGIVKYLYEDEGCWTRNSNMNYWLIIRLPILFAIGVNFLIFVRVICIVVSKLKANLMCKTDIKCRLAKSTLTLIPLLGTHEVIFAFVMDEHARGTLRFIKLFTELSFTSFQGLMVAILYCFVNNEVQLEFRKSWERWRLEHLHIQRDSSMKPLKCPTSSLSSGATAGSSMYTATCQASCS
Experimental: as §2, §3, §4

3T3-L1 adipocytes = settings: for Rel. A (Relative Activity) on 3T3-L1 adipocyte: relative to GIP
Experimental: Mouse 3T3-L1 precursor adipocytes can be induced to differentiate into mature adipocytes. […] After the cells became full and contacted with each other, DMEM differentiation medium containing 20% FBS, 0.5 mM IBMX, 0.4 ug/mL dexamethasone, and 5 ug/mL insulin was used to induce differentiation of 3T3-L1 adipocyte. After 5 days of induction and cultivation, DMEM medium containing […], 4 ug/ml insulin, and 10 uM rosiglitazone was used to continue induction and cultivation for 3 days. Then, DMEM medium containing 10% FBS was used to continue cultivation for 2-3 days to induce mature 3T3-L1 adipocytes.
The cAMP level produced by the compound on 3T3-L1 adipocytes was determined in this experiment. The tested compound solution was diluted step by step according to a concentration gradient of 3 times, to obtain a total of 10 series of concentration solutions. The solutions were added to induced mature 3T3-L1 adipocytes and incubated at room temperature for 60 minutes. 10 μL detection reagent in the kit was added to each well after drug incubation, and incubated at room temperature for another 60 minutes. […] GraphPad Prism 5 plotting software was used to create compound concentration-effect curves and calculation was performed.

EC50 [1] [nM]	EC50 (RIN-m5F cells) [nM]	Human GCG R Rel. A (Relative Activity) (Human GCG R) [%]	Human GIP R Rel. A (Relative Activity) (Human GIP R) [%]	EC50 (Human GIP R) [nM]	Human GLP-1R Rel. A (Relative Activity) (Human GLP-1R) [%]	EC50 (Human GLP-1R) [nM]	EC50 (Human GCG R; stable transfected cell cAMP activity, at least 3 independent tests) [nM]	Compound	Rel. A (Relative Activity) on human primary liver cells [1] [%]	Rel. A (Relative Activity) on RIN-m5F (RIN-m5F cells) [%]	EC50 (3T3-L1 adipocytes) [nM]	Rel. A (Relative Activity) on 3T3-L1 adipocyte (3T3-L1 adipocytes) [%]	EC50 (RIN-m5F cells; cAMP, at least 3 independent tests, read-out: EC50 on RIN-m5F rat pancreatic islet tumor cells) [nM]
2.37	0.624	24.57	724.00	0.025	169.23	0.026		CC[C@H](C)[C@H](NC(=O)[C@H](Cc1ccccc1)NC(=O)[C@H](C)NC(=O)C(C)(C)NC(=O)[C@H](CCC(N)=O)NC(=O)[C@H](C)NC(=O)[C@H](CCCCNC(=O)COCCOCCNC(=O)COCCOCCNC(=O)CC[C@H](NC(=O)CCCCCCCCCCCCCCCCCCC(=O)O)C(=O)O)NC(=O)[C@H](CCCCN)NC(=O)[C@H](CC(=O)O)NC(=O)[C@H](CC(C)C)NC(=O)[C@](C)(CC(C)C)NC(=O)[C@@H](NC(=O)[C@H](CO)NC(=O)[C@H](Cc1ccc(O)cc1)NC(=O)[C@H](CC(=O)O)NC(=O)[C@H](CO)NC(=O)[C@@H](NC(=O)[C@](C)(Cc1ccccc1)NC(=O)[C@@H](NC(=O)CNC(=O)[C@H](CCC(N)=O)NC(=O)C(C)(C)NC(=O)[C@@H](N)Cc1ccc(O)cc1)[C@@H](C)O)[C@@H](C)O)[C@@H](C)CC)C(=O)N[C@@H](CCC(=O)O)C(=O)N[C@@H](Cc1ccc(O)cc1)C(=O)N[C@@H](CC(C)C)C(=O)N[C@@H](CC(C)C)C(=O)N[C@@H](CCC(=O)O)C(=O)N[C@H](C(=O)N[C@@H](Cc1c[nH]cn1)C(=O)N1CCC[C@H]1C(=O)N[C@@H](CO)C(=O)N[C@@H](CO)C(=O)NCC(=O)N[C@@H](C)C(=O)N1CCC[C@H]1C(=O)N1CCC[C@H]1C(=O)NC1(C(=O)N[C@@H](CO)C(N)=O)CC1)[C@@H](C)O [Compound 2] (H-Y[Aib]QGT[αMeF]TSDYSI[αMeL]LDKK([AEEA-AEEA-γGlu-C20 diacid])AQ[Aib]AFIEYLLETHPSSGAPP[Ac3c]S-NH2; N-terminus assumed)	164.32	165.38	2.49	152.63	
0.299	1.59	98.28	1292.86	0.014	220.00	0.02	0.058	CC[C@H](C)[C@H](NC(=O)[C@H](Cc1ccccc1)NC(=O)[C@H](C)NC(=O)C(C)(C)NC(=O)[C@H](CCC(N)=O)NC(=O)[C@H](C)NC(=O)[C@H](CCCCNC(=O)COCCOCCNC(=O)COCCOCCNC(=O)CC[C@H](NC(=O)CCCCCCCCCCCCCCCCCCC(=O)O)C(=O)O)NC(=O)[C@H](CCCCN)NC(=O)[C@H](CC(=O)O)NC(=O)[C@H](CC(C)C)NC(=O)[C@](C)(CC(C)C)NC(=O)[C@@H](NC(=O)[C@H](CO)NC(=O)[C@H](Cc1ccc(O)cc1)NC(=O)[C@H](CC(=O)O)NC(=O)[C@H](CO)NC(=O)[C@@H](NC(=O)[C@](C)(Cc1ccccc1F)NC(=O)[C@@H](NC(=O)CNC(=O)[C@H](Cc1c[nH]cn1)NC(=O)C(C)(C)NC(=O)[C@@H](N)Cc1ccc(O)cc1)[C@@H](C)O)[C@@H](C)O)[C@@H](C)CC)C(=O)N[C@@H](CCC(=O)O)C(=O)N[C@@H](Cc1ccc(O)cc1)C(=O)N[C@@H](CC(C)C)C(=O)N[C@@H](CC(C)C)C(=O)N[C@@H](CCC(=O)O)C(=O)NC(C)(C)C(=O)N[C@@H](Cc1c[nH]cn1)C(=O)N1CCC[C@H]1C(=O)N[C@@H](CO)C(=O)N[C@@H](CO)C(=O)NCC(=O)N[C@@H](CCC(N)=O)C(=O)N1CCC[C@H]1C(=O)N1CCC[C@H]1C(=O)N1CCC[C@H]1C(=O)N[C@@H](CO)C(N)=O [Compound 6] (H-Y[Aib]HGT[αMePhe(2-F)]TSDYSI[αMeL]LDKK([AEEA-AEEA-γGlu-C20 diacid])AQ[Aib]AFIEYLLE[Aib]HPSSGQPPPS-NH2; N-terminus assumed)	1301.34	64.74	1.01	374.58	
								CC[C@H](C)[C@H](NC(=O)[C@H](Cc1ccccc1)NC(=O)[C@H](C)NC(=O)C(C)(C)NC(=O)[C@H](CCC(N)=O)NC(=O)[C@H](C)NC(=O)[C@H](CCCCNC(=O)COCCOCCNC(=O)CC[C@H](NC(=O)CCCCCCCCCCCCCCCCCCC(=O)O)C(=O)O)NC(=O)[C@H](CCCCN)NC(=O)[C@H](CC(=O)O)NC(=O)[C@H](CC(C)C)NC(=O)[C@](C)(CC(C)C)NC(=O)[C@@H](NC(=O)[C@H](CO)NC(=O)[C@H](Cc1ccc(O)cc1)NC(=O)[C@H](CC(=O)O)NC(=O)[C@H](CO)NC(=O)[C@@H](NC(=O)[C@H](Cc1ccccc1)NC(=O)[C@@H](NC(=O)CNC(=O)[C@H](CCC(N)=O)NC(=O)C(C)(C)NC(=O)[C@@H](N)Cc1ccc(O)cc1)[C@@H](C)O)[C@@H](C)O)[C@@H](C)CC)C(=O)N[C@@H](CCC(=O)O)C(=O)N[C@@H](Cc1ccc(O)cc1)C(=O)N[C@@H](CC(C)C)C(=O)N[C@@H](CC(C)C)C(=O)N[C@@H](CCC(=O)O)C(=O)NC(C)(C)C(=O)NCC(=O)N1CCC[C@H]1C(=O)N[C@@H](CO)C(=O)N[C@@H](CO)C(=O)NCC(=O)N[C@@H](C)C(=O)N1CCC[C@H]1C(=O)N1CCC[C@H]1C(=O)N1CCC[C@H]1C(=O)N[C@@H](CO)C(N)=O [Compound 45] (H-Y[Aib]QGTFTSDYSI[αMeL]LDKK([AEEA-γGlu-C20 diacid])AQ[Aib]AFIEYLLE[Aib]GPSSGAPPPS-NH2)			8.11	46.89	

Compound	EC50 [1] [nM]	EC50 (RIN-m5F cells) [nM]	Human GCG R Rel. A (Relative Activity) (Human GCG R) [%]	Human GIP R Rel. A (Relative Activity) (Human GIP R) [%]	EC50 (Human GIP R) [nM]	Human GLP-1R Rel. A (Relative Activity) (Human GLP-1R) [%]	EC50 (Human GLP-1R) [nM]	EC50 (Human GCG R; stable transfected cell cAMP activity, at least 3 independent tests) [nM]	Rel. A (Relative Activity) on human primary liver cells [1] [%]	Rel. A (Relative Activity) on RIN-m5F (RIN-m5F cells) [%]	EC50 (3T3-L1 adipocytes) [nM]	Rel. A (Relative Activity) on 3T3-L1 adipocyte (3T3-L1 adipocytes) [%]	EC50 (RIN-m5F cells; cAMP, at least 3 independent tests, read-out: EC50 on RIN-m5F rat pancreatic islet tumor cells) [nM]
GLP-1(7-37) [reference compound]						100.00				100.00			1.03
